What was measured:
[1] = target: T1, JAK3 (Homo sapiens, UniProt P52333); assay: JAK3 Inhibition Assay; assay type: biochemical; details: 1 nM JAK3, 1 μM poly(Glu)4Tyr, 5 μM ATP, 25° C., 33P incorporation
T1 sequence (P52333 1-1124): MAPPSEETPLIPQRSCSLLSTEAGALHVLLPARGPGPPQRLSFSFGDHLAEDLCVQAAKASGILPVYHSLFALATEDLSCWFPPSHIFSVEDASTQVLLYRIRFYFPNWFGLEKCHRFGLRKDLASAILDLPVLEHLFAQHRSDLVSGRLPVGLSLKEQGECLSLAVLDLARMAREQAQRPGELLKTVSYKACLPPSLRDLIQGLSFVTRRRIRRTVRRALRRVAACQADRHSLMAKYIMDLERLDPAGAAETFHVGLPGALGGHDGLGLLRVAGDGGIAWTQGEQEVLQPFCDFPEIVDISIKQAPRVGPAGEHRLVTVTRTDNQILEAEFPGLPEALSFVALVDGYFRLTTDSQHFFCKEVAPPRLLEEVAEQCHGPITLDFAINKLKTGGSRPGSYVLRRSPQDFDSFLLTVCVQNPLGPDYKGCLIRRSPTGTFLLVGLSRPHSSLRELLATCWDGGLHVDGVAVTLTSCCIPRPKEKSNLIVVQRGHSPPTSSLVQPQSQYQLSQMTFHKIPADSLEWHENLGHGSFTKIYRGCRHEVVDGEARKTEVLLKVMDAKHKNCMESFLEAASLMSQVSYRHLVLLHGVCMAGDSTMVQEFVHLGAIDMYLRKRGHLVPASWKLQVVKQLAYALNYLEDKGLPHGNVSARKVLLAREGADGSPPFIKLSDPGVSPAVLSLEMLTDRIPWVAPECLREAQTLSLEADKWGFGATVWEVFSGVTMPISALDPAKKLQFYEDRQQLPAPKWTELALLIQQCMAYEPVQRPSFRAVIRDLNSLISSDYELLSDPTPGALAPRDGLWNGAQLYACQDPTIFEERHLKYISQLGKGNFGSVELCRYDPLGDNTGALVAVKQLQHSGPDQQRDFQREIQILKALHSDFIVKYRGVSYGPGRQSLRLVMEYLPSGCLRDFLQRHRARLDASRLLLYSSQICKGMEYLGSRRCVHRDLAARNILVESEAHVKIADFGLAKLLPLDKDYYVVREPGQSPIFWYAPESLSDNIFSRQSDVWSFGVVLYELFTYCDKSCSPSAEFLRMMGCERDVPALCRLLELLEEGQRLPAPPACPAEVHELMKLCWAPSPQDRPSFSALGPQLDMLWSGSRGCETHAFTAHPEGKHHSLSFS

[2] = target: JAK-2 enzyme (Homo sapiens, UniProt O60674); assay: JAK2 Inhibition Assay
Chain of JAK-2 enzyme (O60674 whole entry): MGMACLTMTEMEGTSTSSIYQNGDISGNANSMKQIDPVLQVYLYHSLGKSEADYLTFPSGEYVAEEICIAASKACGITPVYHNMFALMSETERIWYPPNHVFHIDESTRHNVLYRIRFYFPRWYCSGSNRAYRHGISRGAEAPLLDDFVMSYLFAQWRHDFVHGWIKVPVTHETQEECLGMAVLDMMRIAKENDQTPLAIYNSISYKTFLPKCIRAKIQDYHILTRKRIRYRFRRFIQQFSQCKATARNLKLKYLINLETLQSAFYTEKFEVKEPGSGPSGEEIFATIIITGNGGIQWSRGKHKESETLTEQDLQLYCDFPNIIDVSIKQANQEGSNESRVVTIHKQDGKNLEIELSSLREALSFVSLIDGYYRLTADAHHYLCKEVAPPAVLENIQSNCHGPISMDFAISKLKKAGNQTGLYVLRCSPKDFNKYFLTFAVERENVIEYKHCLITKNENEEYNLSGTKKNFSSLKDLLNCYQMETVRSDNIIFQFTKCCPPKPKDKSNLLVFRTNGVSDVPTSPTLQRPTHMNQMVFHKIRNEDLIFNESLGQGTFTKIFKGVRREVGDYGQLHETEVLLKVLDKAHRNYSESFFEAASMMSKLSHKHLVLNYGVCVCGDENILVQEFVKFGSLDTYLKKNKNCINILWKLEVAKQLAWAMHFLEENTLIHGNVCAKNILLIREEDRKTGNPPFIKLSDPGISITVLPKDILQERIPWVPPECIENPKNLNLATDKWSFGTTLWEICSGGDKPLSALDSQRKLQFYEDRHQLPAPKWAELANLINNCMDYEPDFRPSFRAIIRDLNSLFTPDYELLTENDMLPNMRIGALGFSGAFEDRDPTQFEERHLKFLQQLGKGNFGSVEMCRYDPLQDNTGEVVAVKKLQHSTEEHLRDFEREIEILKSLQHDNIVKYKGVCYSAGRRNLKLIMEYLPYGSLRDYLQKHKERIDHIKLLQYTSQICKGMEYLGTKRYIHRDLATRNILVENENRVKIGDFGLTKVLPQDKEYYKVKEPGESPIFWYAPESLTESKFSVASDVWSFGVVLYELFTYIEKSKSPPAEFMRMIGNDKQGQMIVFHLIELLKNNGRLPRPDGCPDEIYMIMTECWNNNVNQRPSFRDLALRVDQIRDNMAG
Method: Reactions were carried out in a kinase buffer containing 100 mM HEPES (pH 7.4), 1 mM DTT, 10 mM MgCl2, 25 mM NaCl, and 0.01% BSA. Substrate concentrations in the assay were 5 μM ATP (200 uCi/μmole ATP) and 1 μM poly(Glu)4Tyr. Reactions were carried out at 25° C. and 1 nM JAK3.
To each well of a 96 well polycarbonate plate was added 1.5 μl of a candidate JAK3 inhibitor along with 50 μl of kinase buffer containing 2 μM poly(Glu)4Tyr and 10 μM ATP. This was then mixed and 50 μl of kinase buffer containing 2 nM JAK3 enzyme was added to start the reaction. After 20 minutes at room temperature (25° C.), the reaction was stopped with 50 μl of 20% trichloroacetic acid (TCA) that also contained 0.4 mM ATP. The entire contents of each well were then transferred to a 96 well glass fiber filter plate using a TomTek Cell Harvester. After washing, 60 μl of scintillation fluid was added and ^33P incorporation detected on a Perkin Elmer TopCount.

Ki [1] [nM] | Ki [2] [nM] | SMILES
10 to 100 | < 10 | C[C@H](Nc1cc(-c2c(N)nn3cccnc23)nc(O)n1)c1ccc(F)cc1F [Compound 131]
10 to 100 | < 10 | CCC[C@H](Nc1cc(-c2cnn3cccnc23)ncn1)c1ccc(F)cc1 [Compound 116]
100 to 500 | 10 to 100 | C[C@H](Nc1cc(-c2c(N)nn3cccnc23)nc(N2CC[C@H](F)C2)n1)c1ccc(F)cc1 [Compound 191]
100 to 500 | < 10 | CC[C@H](Nc1cc(-c2c(N)nn3cccnc23)ncn1)c1ccc(Cl)cc1F [Compound 83]
100 to 500 | 10 to 100 | CC(C)[C@H](Nc1cc(-c2c(N)nn3cccnc23)nc(N2CCOCC2)n1)c1ccc(F)cc1F [Compound 125]
10 to 100 | < 10 | CCC(Oc1cc(-c2c(N)nn3cccnc23)ncn1)c1ccccc1 (stereo not shown) [Compound 65]
100 to 500 | < 10 | CC1CC1COc1nc(N[C@@H](C)c2ccc(F)cc2F)cc(-c2cnn3cccnc23)n1 (stereo partly shown) [Compound 214]
500 to 5000 | 100 to 500 | O=C(Nc1ccnc(-c2cnn3cccnc23)c1)c1ccc(F)cc1 [Compound 227]
100 to 500 | 10 to 100 | Nc1nn2cccnc2c1-c1cc(N[C@@H](CCO)c2ccccc2)nc(N2CCOCC2)n1 [Compound 102]
10 to 100 | < 10 | C[C@H](Nc1cc(-c2cnn3cccnc23)nc(OCC2CCCN(C)C2)n1)c1ccc(F)cc1F (stereo partly shown) [Compound 215]
10 to 100 | < 10 | C[C@H](Nc1cc(-c2c(N)nn3cccnc23)nc(OCC2CCCO2)n1)c1ccc(F)cc1F (stereo partly shown) [Compound 139]
10 to 100 | < 10 | CC(C)OCCOc1nc(N[C@@H](C)c2ccc(F)cc2F)cc(-c2cnn3cccnc23)n1 [Compound 219]
100 to 500 | 10 to 100 | CCC[C@H](Nc1cc(-c2c(N)nn3cccnc23)nc(N2CCOCC2)n1)c1ccc(F)cc1 [Compound 103]
100 to 500 | 10 to 100 | CCC[C@H](Nc1cc(-c2c(N)nn3cccnc23)nc(N2CCOCC2)n1)c1ccc(F)cc1F [Compound 107]
10 to 100 | < 10 | C[C@H](Nc1cc(-c2cnn3cccnc23)nc(OCCN2CCCC2=O)n1)c1ccc(F)cc1F [Compound 209]
10 to 100 | 10 to 100 | CN(Cc1cccnc1)c1cc(-c2c(N)nn3cccnc23)ncn1 [Compound 33]
10 to 100 | < 10 | C[C@H](Nc1cc(-c2c(N)nn3cccnc23)nc(N2CCOCC2)n1)c1ccc(F)cc1 [Compound 96]
10 to 100 | < 10 | CCN(CC)CCOc1nc(N[C@@H](C)c2ccc(F)cc2)cc(-c2c(N)nn3cccnc23)n1 [Compound 99]
10 to 100 | < 10 | COCC(=O)Nc1nc(N[C@@H](C)c2ccc(F)cc2F)cc(-c2cnn3cccnc23)n1 [Compound 187]
500 to 5000 | 10 to 100 | CCC#CC(C)Oc1nc(N[C@@H](C)c2ccc(F)cc2)cc(-c2c(N)nn3cccnc23)n1 (stereo partly shown) [Compound 179]
< 10 | < 10 | C[C@H](Nc1cc(-c2c(N)nn3cccnc23)nc(S(C)(=O)=O)n1)c1ccc(F)cc1F [Compound 111]
10 to 100 | < 10 | CC[C@@H](Nc1cc(-c2c(N)nn3cccnc23)ncn1)c1ccc(F)cc1F [Compound 88]
10 to 100 | < 10 | CC(C#N)Oc1nc(N[C@@H](C)c2ccc(F)cc2F)cc(-c2cnn3cccnc23)n1 (stereo partly shown) [Compound 201]
10 to 100 | < 10 | CSCCOc1nc(N[C@@H](C)c2ccc(F)cc2)cc(-c2c(N)nn3cccnc23)n1 [Compound 173]
100 to 500 | 10 to 100 | Cc1ccc(CNc2cc(-c3c(N)nn4cccnc34)ncn2)o1 [Compound 26]
10 to 100 | < 10 | CCCOc1nc(N[C@@H](C)c2ccc(F)cc2)cc(-c2c(N)nn3cccnc23)n1 [Compound 153]
